From ChEMBL document CHEMBL4627328, “Synthesis and in vitro evaluation of antimycobacterial and cytotoxic activity of new α,β-unsaturated amide, oxazoline and oxazole derivatives from l-serine” (Bioorg Med Chem Lett, 2020)
Values after ≈ are worked out from the molar mass of the structure shown.

Test system: Mycobacterium tuberculosis
Assay: Antimycobacterial activity against multidrug resistant Mycobacterium tuberculosis G122 incubated for 5 days by alamar blue based colorimetric assay
Format: functional
Conditions: G122, 120 h

| Compound | MIC [µM] |
| --- | --- |
| COC(=O)[C@H](COC(=O)/C=C/c1ccc(F)cc1)NC(=O)/C=C/c1ccc(F)cc1 | > 241 |
| COC(=O)[C@H](COC(=O)/C=C/c1ccc(C)cc1)NC(=O)/C=C/c1ccc(C)cc1 | > 245 |
| COC(=O)c1coc(/C=C/c2ccc(OC)cc2)n1 | 48.2 (≈ 12.5 µg/mL) |
| COC(=O)c1coc(/C=C/c2ccc(F)cc2)n1 | 50.5 (≈ 12.5 µg/mL) |
| COC(=O)[C@H](COC(=O)/C=C/c1ccc(OC)cc1)NC(=O)/C=C/c1ccc(OC)cc1 | > 228 |
| COC(=O)[C@@H]1COC(/C=C/c2ccc(C)cc2)=N1 | 50.9 (≈ 12.5 µg/mL) |
| CO[C@H]1/C=C/O[C@@]2(C)Oc3c(C)c(O)c4c(O)c(c(/C=N/N5CCN(C)CC5)c(O)c4c3C2=O)NC(=O)/C(C)=C\C=C\[C@H](C)[C@H](O)[C@@H](C)[C@@H](O)[C@@H](C)[C@H](OC(C)=O)[C@@H]1C [RIFAMPIN] | 0.23 (≈ 0.189 µg/mL) |
| COC(=O)[C@H](CO)NC(=O)/C=C/c1ccc(C)cc1 | > 380 |
| COC(=O)c1coc(/C=C/c2ccc(C)cc2)n1 | 25.7 (≈ 6.25 µg/mL) |
| C[C@H]1COc2c(N3CCN(C)CC3)c(F)cc3c(=O)c(C(=O)O)cn1c23 [LEVOFLOXACIN] | 0.54 (≈ 0.195 µg/mL) |
| Cc1ccc(/C=C/C(=O)O/C(=N/C2CCCCC2)NC2CCCCC2)cc1 | > 271 |
| COC(=O)[C@H](CO)NC(=O)/C=C/c1ccc(OC)cc1 | > 358 |
| CC[C@@H](CO)NCCN[C@@H](CC)CO [ETHAMBUTOL] | > 30.5 |
| O=C(/C=C/c1ccc(F)cc1)O/C(=N/C1CCCCC1)NC1CCCCC1 | > 268 |
| O=C(/C=C/c1ccccc1)O/C(=N/C1CCCCC1)NC1CCCCC1 | > 282 |
| COC(=O)[C@@H]1COC(/C=C/c2ccc(F)cc2)=N1 | 100 (≈ 25 µg/mL) |
| COC(=O)[C@H](COC(=O)/C=C/c1ccccc1)NC(=O)/C=C/c1ccccc1 | > 264 |
| COC(=O)[C@H](CO)NC(=O)/C=C/c1ccccc1 | > 401 |
| COC(=O)[C@H](CO)NC(=O)/C=C/c1ccc(F)cc1 | > 374 |
| COC(=O)c1coc(/C=C/c2ccccc2)n1 | 54.5 (≈ 12.5 µg/mL) |
| COC(=O)[C@@H]1COC(/C=C/c2ccc(OC)cc2)=N1 | 47.8 (≈ 12.5 µg/mL) |
| COC(=O)[C@@H]1COC(/C=C/c2ccccc2)=N1 | 54.1 (≈ 12.5 µg/mL) |
